Laboratory results: US11078216B2, “Bisaryl amides as NRF2 activators” (GLAXOSMITHKLINE INTELLECTUAL PROPERTY DEVELOPMENT LIMITED, priority 2016, dated 2021)

Test system: NRF2 (NQO1 activity as marker for NRF2 activation), BEAS-2B cells
Experiment: BEAS-2B NQO1 MTT Assay
Assay type: cell-based
Conditions: Homo sapiens, EC50 of NQO1 specific activity induction, 48 hours incubation, read-out: EC50
Procedure, shortened: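 As a marker of NRF2 activation, NQO1 specific activity was read from the rate of absorbance change at 570 nm in MTT cocktail over 30 minutes. Lysates came from BEAS-2B cells treated for 48 hours at 37° C, and EC50 was derived by 3-parameter fitting.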

Structure (SMILES)	EC50
CC[C@@H]1CN(Cc2cc([C@@H](c3ccc4c(nnn4CC)c3C)C(C)(C)NC(=O)c3cnc(OCCCOC)nc3)ccc2C)S(=O)(=O)c2ccccc2O1 [Example 160, N-((S)-1-(3-(((R)-4-Ethyl-1,1-dioxido-3,4-dihydro-2H-benzo[b][1,4,5]oxathiazepin-2-yl)methyl)-4-methylphenyl)-1-(1-ethyl-4-methyl-1H-benzo[d][1,2,3]triazol-5-yl)-2-methylpropan-2-yl)-2-(3-methoxypropoxy)pyrimidine-5-carboxamide]	1 to 10 nM
CC[C@@H]1CN(Cc2cc([C@@H](c3ccc4c(nnn4CC)c3C)C(C)(C)NC(=O)c3cnc(OCCO)nc3)ccc2C)S(=O)(=O)c2ccccc2O1 [Example 161, N-((S)-1-(3-(((R)-4-Ethyl-1,1-dioxido-3,4-dihydro-2H-benzo[b][1,4,5]oxathiazepin-2-yl)methyl)-4-methylphenyl)-1-(1-ethyl-4-methyl-1H-benzo[d][1,2,3]triazol-5-yl)-2-methylpropan-2-yl)-2-(2-hydroxyethoxy)pyrimidine-5-carboxamide]	10 to 100 nM
CC[C@@H]1CN(Cc2cc([C@@H](c3ccc4c(nnn4CC)c3C)C(C)(C)NC(=O)c3cnc(N(C)C)nc3)ccc2C)S(=O)(=O)c2ccccc2O1 [Example 162]	10 to 100 nM
CCOCCOc1ncc(C(=O)NC(C)(C)[C@@H](c2ccc(C)c(CN3C[C@@H](CC)Oc4ccccc4S3(=O)=O)c2)c2ccc3c(nnn3CC)c2C)cn1 [Example 163, 2-(2-Ethoxyethoxy)-N-((S)-1-(3-(((R)-4-ethyl-1,1-dioxido-3,4-dihydro-2H-benzo[b][1,4,5]oxathiazepin-2-yl)methyl)-4-methylphenyl)-1-(1-ethyl-4-methyl-1H-benzo[d][1,2,3]triazol-5-yl)-2-methylpropan-2-yl)pyrimidine-5-carboxamide]	1 to 10 nM
CC[C@@H]1CN(Cc2cc([C@@H](c3ccc4c(nnn4CC)c3C)C(C)(C)NC(=O)c3cnc(N4CCOCC4)nc3)ccc2C)S(=O)(=O)c2ccccc2O1 [Example 164, N-((S)-1-(3-(((R)-4-Ethyl-1,1-dioxido-3,4-dihydro-2H-benzo[b][1,4,5]oxathiazepin-2-yl)methyl)-4-methylphenyl)-1-(1-ethyl-4-methyl-1H-benzo[d][1,2,3]triazol-5-yl)-2-methylpropan-2-yl)-2-morpholinopyrimidine-5-carboxamide]	10 to 100 nM
CC[C@@H]1CN(Cc2cc([C@@H](c3ccc4c(nnn4CC)c3C)C(C)(C)NC(=O)c3cnc(N4CCN(C)CC4)nc3)ccc2C)S(=O)(=O)c2ccccc2O1 [Example 165, N-((S)-1-(3-(((R)-4-Ethyl-1,1-dioxido-3,4-dihydro-2H-benzo[b][1,4,5]oxathiazepin-2-yl)methyl)-4-methylphenyl)-1-(1-ethyl-4-methyl-1H-benzo[d][1,2,3]triazol-5-yl)-2-methylpropan-2-yl)-2-(4-methylpiperazin-1-yl)pyrimidine-5-carboxamide]	10 to 100 nM
CC[C@@H]1CN(Cc2cc([C@@H](c3ccc4c(nnn4CC)c3C)C(C)(C)NC(=O)c3cccnc3)ccc2C)S(=O)(=O)c2cccnc2O1 [Example 166, N—((S)-1-(3-(((R)-4-Ethyl-1,1-dioxido-3,4-dihydro-2H-pyrido[2,3-b][1,4,5]oxathiazepin-2-yl)methyl)-4-methylphenyl)-1-(1-ethyl-4-methyl-1H-benzo[d][1,2,3]triazol-5-yl)-2-methylpropan-2-yl)nicotinamide]	1 to 10 nM
CC[C@@H]1CN(Cc2cc([C@@H](c3ccc4c(nnn4CC)c3C)C(C)(C)N(C)C(=O)c3cncnc3)ccc2C)S(=O)(=O)c2ccccc2O1 [Example 167, N—((S)-1-(3-(((R)-4-Ethyl-1,1-dioxido-3,4-dihydro-2H-benzo[b][1,4,5]oxathiazepin-2-yl)methyl)-4-methylphenyl)-1-(1-ethyl-4-methyl-1H-benzo[d][1,2,3]triazol-5-yl)-2-methylpropan-2-yl)-N-methylpyrimidine-5-carboxamide]	10 to 100 nM
